Measured values from patent US6346540B1, “1-(1,2-disubstituted pipeidinyl)-4-substituted piperidine derivatives” (Janssen Pharmaceutica N.V., priority 1995, dated 2002).

How the values were obtained:
guinea-pigs = assay: Antagonism of substance P induced plasma extravasation in guinea-pigs; type: in vivo; conditions: lowest active dose, compound given 1 hour prior to substance P, female guinea-pigs; for LAD conjunctiva / LAD forepaws / LAD nose: 10 minutes after challenge; for LAD trachea / LAD urinary bladder: 30 minutes after challenge
Protocol: Antagonism of Substance P Induced Plasma Extravasation in Guinea-pigs
Plasma extravasation was induced by injection of substance P (2 mg/kg) in the femoral artery of female guinea-pigs. Evans Blue dye (30 mg/kg) was injected simultaneously. The test compound or solvent was administered 1 hour prior to substance P injection. 10 minutes after challenge, the animals were checked for blue colouring (a direct measure for plasma extravasation) of the nose, the forepaws, and the conjunctiva. 30 minutes after challenge, the animals were sacrificed by CO2 gas inhalation and checked for blue coloring of the trachea and the urinary bladder. […]

melting point	Structure (SMILES)	LAD conjunctiva (guinea-pigs)	LAD forepaws (guinea-pigs)	LAD nose (guinea-pigs)	LAD trachea (guinea-pigs)	LAD urinary bladder (guinea-pigs)
213.1 °C	COc1ccccc1C1(O)CCN([C@@H]2CCN(C(=O)c3cc(C)cc(C)c3)[C@@H](Cc3ccccc3)C2)CC1 (racemic) [Compound 17, (±)-trans-1-(3,5-dimethylbenzoyl)-4-[4-hydroxy-4-(2-methoxyphenyl)-1-piperidinyl]-2-(phenyl-methyl)piperidine]	–	–	–	–	–
121.1 °C	Cc1cc(C)cc(C(=O)N2CC[C@H](N3CCC(NC(=O)c4ccccc4N)CC3)C[C@@H]2Cc2ccccc2)c1 (racemic) [Compound 24, (±)-cis-2-amino-N-[1-[1-(3,5-dimethylbenzoyl)-2-(phenylmethyl)-4-piperidinyl]-4-piperidinyl]benzamide]	–	–	–	–	–
67.8 °C	Cc1cc(C)cc(C(=O)N2CC[C@@H](N3CCC(NCCc4ccccc4)CC3)C[C@@H]2Cc2ccccc2)c1 (racemic) [Compound 27, (±)-trans-1-(3,5-dimethylbenzoyl)-4-[4-[(2-phenylethyl)amino]-1-piperidinyl]-2-(phenylmethyl)piperidine]	–	–	–	–	–
83.3 °C	Cc1cc(C)cc(C(=O)N2CC[C@@H](N3CCC(OC(=O)c4cc(Cl)cc(Cl)c4)CC3)C[C@@H]2Cc2ccccc2)c1 (racemic) [Compound 33, (±)-trans-1-[1-(3,5-dimethylbenzoyl)-2-(phenylmethyl)-4-piperidinyl]-4-piperidinyl 3,5-dichloro-benzoate]	–	–	–	–	–

Continued, compound first:

Structure (SMILES)	melting point	LAD conjunctiva (guinea-pigs)	LAD forepaws (guinea-pigs)	LAD nose (guinea-pigs)	LAD trachea (guinea-pigs)	LAD urinary bladder (guinea-pigs)
Cc1cc(C)cc(C(=O)N2CC[C@H](N3CCC(C(=O)O)(c4ccccc4)CC3)C[C@@H]2Cc2ccccc2)c1 (racemic)	259.1 °C	–	–	–	–	–
O=C(c1cc(C(F)(F)F)cc(C(F)(F)F)c1)N1CC[C@@H](N2CCC(n3c(=O)[nH]c4ccccc43)CC2)C[C@@H]1Cc1ccccc1 (racemic) [Compound 43, (±)-trans-1-[3,5-bis(trifluoromethyl)benzoyl]-4-[4-(2,3-dihydro-2-oxo-1H-benzimidazol-1-yl)-1-piperidinyl]-2-(phenylmethyl)piperidine]	156.1 °C	2.5 mg/kg	2.5 mg/kg	2.5 mg/kg	10 mg/kg	10 mg/kg
O=C(c1cc(C(F)(F)F)cc(C(F)(F)F)c1)N1CC[C@@H](N2CCC(C(=O)N3CCCC3)(c3ccccc3)CC2)C[C@@H]1Cc1ccc(C(F)(F)F)cc1 (racemic) [Compound 112, (±)-trans-1-[3,5-bis(trifluoromethyl)benzoyl]-4-[4-phenyl-4-(1-pyrrolidinylcarbonyl)-1-piperidinyl]-2-[[4-(trifluoromethyl)phenyl]methyl]-piperidine]	–	2.5 mg/kg	2.5 mg/kg	2.5 mg/kg	2.5 mg/kg	2.5 mg/kg
